Assay results taken from ChEMBL document CHEMBL1649136, “Plasmodium falciparum pfmdr1 amplification, mefloquine resistance, and parasite fitness” (Antimicrob Agents Chemother, 2009).

Test system: Plasmodium falciparum
Assay: Antimicrobial activity against Plasmodium falciparum isolate TM3036 expressing 1 copies of pfmdr1 gene

With Cl.OC(c1cc(C(F)(F)F)nc2c(C(F)(F)F)cccc12)C1CCCCN1 (stereo unspecified) [MEFLOQUINE HYDROCHLORIDE] the IC50 was 1.47 ng/mL.
